Key:
Experiment in all cases: relative viability (nuclei count vs DMSO), 5 days (fraction); higher = more cells survive
[1] = test system: NCI-H727
Outline: (§1)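 Relative viability was taken as the ratio of nuclei in treated wells to nuclei in vehicle wells. Lung cancer cell lines in 1536-well plates received compounds by pin tool one day after seeding, either one drug alone or a fixed anchor-drug dose plus five library-drug doses (not always all listed) in √10 steps. Nuclei were counted on 4× images after 5 days of treatment, and values are medians of duplicate plates.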

[2] = test system: NCI-H358
Outline: as §1

[3] = test system: NCI-H2405
Outline: as §1

[4] = test system: H3255
Outline: as §1

[5] = test system: NCI-H23
Outline: as §1

[6] = test system: NCI-H1666
Outline: as §1

[7] = test system: NCI-H2347
Outline: as §1

[8] = test system: NCI-H520
Outline: as §1

[9] = test system: NCI-H1437
Outline: as §1

[10] = test system: NCI-H1648
Outline: as §1

[11] = test system: NCI-H3122
Outline: as §1

[12] = test system: UMC-11
Outline: as §1

[13] = test system: NCI-H2009
Outline: as §1

[14] = test system: SK-LU-1
Outline: as §1

[15] = test system: NCI-H1650
Outline: as §1

[16] = test system: NCI-H322M
Outline: as §1

[17] = test system: NCI-H2087
Outline: as §1

[18] = test system: NCI-H2126
Outline: as §1

[19] = test system: ChaGo-K-1
Outline: as §1

[20] = test system: BEN
Outline: as §1

[21] = test system: A-427
Outline: as §1

[22] = test system: NCI-H441
Outline: as §1

[23] = test system: EKVX
Outline: as §1

[24] = test system: NCI-H1755
Outline: as §1

**Q.** Which relative viability ([1]; first compound 0.08 µM) does the source give for `C=C1C(=O)O[C@@H](CCCCCCCC)[C@@H]1C(=O)O` [C-75] + O=C(CCCCCCC(=O)Nc1ccccc1)NO [Vorinostat] (partner 1 µM) here?
**A.** 1.22

**Q.** What about the relative viability ([1]; first compound 0.253 µM) of the same compound?
**A.** 1.31

**Q.** What about the relative viability ([1]; first compound 0.8 µM) of the same compound?
**A.** 0.973

**Q.** And the relative viability ([1]; first compound 2.53 µM)?
**A.** 1.18

**Q.** What about the relative viability ([1]; first compound 8 µM) of the same compound?
**A.** 1.23

**Q.** And the relative viability ([2]; first compound 0.08 µM)?
**A.** 0.704

**Q.** What about the relative viability ([2]; first compound 0.253 µM) of the same compound?
**A.** 0.789

**Q.** What about the relative viability ([2]; first compound 0.8 µM) of the same compound?
**A.** 0.689

**Q.** And the relative viability ([2]; first compound 8 µM)?
**A.** 0.608

**Q.** What about the relative viability ([3]; first compound 0.08 µM) of the same compound?
**A.** 1

**Q.** What about the relative viability ([3]; first compound 0.253 µM) of the same compound?
**A.** 0.831

**Q.** And the relative viability ([3]; first compound 0.8 µM)?
**A.** 0.313

**Q.** And the relative viability ([3]; first compound 2.53 µM)?
**A.** 0.708

**Q.** And the relative viability ([3]; first compound 8 µM)?
**A.** 0.891

**Q.** What about the relative viability ([4]; first compound 0.08 µM) of the same compound?
**A.** 0.846

**Q.** What about the relative viability ([4]; first compound 0.253 µM) of the same compound?
**A.** 0.621

**Q.** What about the relative viability ([4]; first compound 0.8 µM) of the same compound?
**A.** 0.79

**Q.** What about the relative viability ([4]; first compound 2.53 µM) of the same compound?
**A.** 0.627

**Q.** What about the relative viability ([4]; first compound 8 µM) of the same compound?
**A.** 0.732

**Q.** What about the relative viability ([5]; first compound 0.08 µM) of the same compound?
**A.** 0.605

**Q.** What about the relative viability ([5]; first compound 0.253 µM) of the same compound?
**A.** 0.642

**Q.** What about the relative viability ([5]; first compound 0.8 µM) of the same compound?
**A.** 0.497

**Q.** And the relative viability ([5]; first compound 2.53 µM)?
**A.** 0.366

**Q.** What about the relative viability ([5]; first compound 8 µM) of the same compound?
**A.** 0.407

**Q.** What about the relative viability ([6]; first compound 0.08 µM) of the same compound?
**A.** 1.05

**Q.** What about the relative viability ([6]; first compound 0.253 µM) of the same compound?
**A.** 1.3

**Q.** And the relative viability ([6]; first compound 0.8 µM)?
**A.** 0.895

**Q.** And the relative viability ([6]; first compound 8 µM)?
**A.** 0.913

**Q.** And the relative viability ([7]; first compound 0.08 µM)?
**A.** 0.567

**Q.** What about the relative viability ([7]; first compound 0.253 µM) of the same compound?
**A.** 0.842

**Q.** What about the relative viability ([7]; first compound 0.8 µM) of the same compound?
**A.** 0.614

**Q.** And the relative viability ([7]; first compound 2.53 µM)?
**A.** 0.535

**Q.** What about the relative viability ([7]; first compound 8 µM) of the same compound?
**A.** 0.615

**Q.** What about the relative viability ([8]; first compound 0.08 µM) of the same compound?
**A.** 0.647

**Q.** What about the relative viability ([8]; first compound 0.253 µM) of the same compound?
**A.** 0.716

**Q.** And the relative viability ([8]; first compound 0.8 µM)?
**A.** 0.637

**Q.** What about the relative viability ([8]; first compound 2.53 µM) of the same compound?
**A.** 0.577

**Q.** And the relative viability ([8]; first compound 8 µM)?
**A.** 0.592

**Q.** And the relative viability ([9]; first compound 0.08 µM)?
**A.** 0.866

**Q.** And the relative viability ([9]; first compound 0.253 µM)?
**A.** 0.98

**Q.** And the relative viability ([9]; first compound 0.8 µM)?
**A.** 0.733

**Q.** What about the relative viability ([9]; first compound 8 µM) of the same compound?
**A.** 0.717

**Q.** And the relative viability ([10]; first compound 0.08 µM)?
**A.** 0.571

**Q.** What about the relative viability ([10]; first compound 0.253 µM) of the same compound?
**A.** 1.1

**Q.** What about the relative viability ([10]; first compound 0.8 µM) of the same compound?
**A.** 0.283

**Q.** What about the relative viability ([10]; first compound 8 µM) of the same compound?
**A.** 0.216

**Q.** What about the relative viability ([11]; first compound 0.08 µM) of the same compound?
**A.** 1.02

**Q.** And the relative viability ([11]; first compound 0.253 µM)?
**A.** 1.6

**Q.** What about the relative viability ([11]; first compound 0.8 µM) of the same compound?
**A.** 1.01

**Q.** What about the relative viability ([11]; first compound 2.53 µM) of the same compound?
**A.** 0.578

**Q.** And the relative viability ([11]; first compound 8 µM)?
**A.** 0.989

**Q.** What about the relative viability ([12]; first compound 0.08 µM) of the same compound?
**A.** 0.38

**Q.** What about the relative viability ([12]; first compound 0.253 µM) of the same compound?
**A.** 0.497

**Q.** What about the relative viability ([12]; first compound 0.8 µM) of the same compound?
**A.** 0.343

**Q.** And the relative viability ([12]; first compound 2.53 µM)?
**A.** 0.257

**Q.** And the relative viability ([12]; first compound 8 µM)?
**A.** 0.294

**Q.** And the relative viability ([13]; first compound 0.08 µM)?
**A.** 0.764

**Q.** And the relative viability ([13]; first compound 0.253 µM)?
**A.** 0.668

**Q.** What about the relative viability ([13]; first compound 0.8 µM) of the same compound?
**A.** 0.469

**Q.** And the relative viability ([13]; first compound 2.53 µM)?
**A.** 0.783

**Q.** What about the relative viability ([13]; first compound 8 µM) of the same compound?
**A.** 0.715

**Q.** And the relative viability ([14]; first compound 0.08 µM)?
**A.** 0.782

**Q.** And the relative viability ([14]; first compound 0.253 µM)?
**A.** 0.724

**Q.** And the relative viability ([14]; first compound 0.8 µM)?
**A.** 0.698

**Q.** And the relative viability ([14]; first compound 2.53 µM)?
**A.** 0.752

**Q.** And the relative viability ([14]; first compound 8 µM)?
**A.** 0.59

**Q.** What about the relative viability ([15]; first compound 0.08 µM) of the same compound?
**A.** 0.597

**Q.** And the relative viability ([15]; first compound 0.253 µM)?
**A.** 0.751

**Q.** And the relative viability ([15]; first compound 0.8 µM)?
**A.** 0.665

**Q.** What about the relative viability ([15]; first compound 8 µM) of the same compound?
**A.** 0.463

**Q.** What about the relative viability ([16]; first compound 0.08 µM) of the same compound?
**A.** 0.859

**Q.** And the relative viability ([16]; first compound 0.253 µM)?
**A.** 1.32

**Q.** And the relative viability ([16]; first compound 0.8 µM)?
**A.** 0.851

**Q.** What about the relative viability ([16]; first compound 8 µM) of the same compound?
**A.** 0.847

**Q.** What about the relative viability ([17]; first compound 0.08 µM) of the same compound?
**A.** 0.683

**Q.** What about the relative viability ([17]; first compound 0.253 µM) of the same compound?
**A.** 0.586

**Q.** And the relative viability ([17]; first compound 0.8 µM)?
**A.** 0.666

**Q.** And the relative viability ([17]; first compound 2.53 µM)?
**A.** 0.635

**Q.** And the relative viability ([17]; first compound 8 µM)?
**A.** 0.541

**Q.** And the relative viability ([18]; first compound 0.08 µM)?
**A.** 0.721

**Q.** And the relative viability ([18]; first compound 0.253 µM)?
**A.** 0.92

**Q.** What about the relative viability ([18]; first compound 0.8 µM) of the same compound?
**A.** 0.792

**Q.** What about the relative viability ([18]; first compound 2.53 µM) of the same compound?
**A.** 0.642

**Q.** What about the relative viability ([18]; first compound 8 µM) of the same compound?
**A.** 0.744

**Q.** And the relative viability ([19]; first compound 0.08 µM)?
**A.** 0.759

**Q.** What about the relative viability ([19]; first compound 0.253 µM) of the same compound?
**A.** 0.772

**Q.** And the relative viability ([19]; first compound 0.8 µM)?
**A.** 0.701

**Q.** And the relative viability ([19]; first compound 2.53 µM)?
**A.** 0.609

**Q.** And the relative viability ([19]; first compound 8 µM)?
**A.** 0.668

**Q.** And the relative viability ([20]; first compound 0.08 µM)?
**A.** 0.642

**Q.** What about the relative viability ([20]; first compound 0.253 µM) of the same compound?
**A.** 0.574

**Q.** What about the relative viability ([20]; first compound 0.8 µM) of the same compound?
**A.** 0.524

**Q.** What about the relative viability ([20]; first compound 2.53 µM) of the same compound?
**A.** 0.647

**Q.** And the relative viability ([20]; first compound 8 µM)?
**A.** 0.606

**Q.** What about the relative viability ([21]; first compound 0.08 µM) of the same compound?
**A.** 0.851

**Q.** What about the relative viability ([21]; first compound 0.253 µM) of the same compound?
**A.** 0.822

**Q.** And the relative viability ([21]; first compound 0.8 µM)?
**A.** 0.615

**Q.** What about the relative viability ([21]; first compound 2.53 µM) of the same compound?
**A.** 0.755

**Q.** And the relative viability ([21]; first compound 8 µM)?
**A.** 0.852

**Q.** And the relative viability ([22]; first compound 0.08 µM)?
**A.** 0.82

**Q.** And the relative viability ([22]; first compound 0.253 µM)?
**A.** 0.885

**Q.** And the relative viability ([22]; first compound 0.8 µM)?
**A.** 0.764

**Q.** And the relative viability ([22]; first compound 8 µM)?
**A.** 0.568

**Q.** What about the relative viability ([23]; first compound 0.08 µM) of the same compound?
**A.** 0.725

**Q.** What about the relative viability ([23]; first compound 0.253 µM) of the same compound?
**A.** 0.827

**Q.** What about the relative viability ([23]; first compound 0.8 µM) of the same compound?
**A.** 0.654

**Q.** And the relative viability ([23]; first compound 8 µM)?
**A.** 0.728

**Q.** And the relative viability ([24]; first compound 0.08 µM)?
**A.** 0.732

**Q.** What about the relative viability ([24]; first compound 0.253 µM) of the same compound?
**A.** 0.868

**Q.** What about the relative viability ([24]; first compound 0.8 µM) of the same compound?
**A.** 0.692

**Q.** And the relative viability ([24]; first compound 2.53 µM)?
**A.** 0.774

**Q.** And the relative viability ([24]; first compound 8 µM)?
**A.** 0.732
